# pIC50: −log10 of the molar value. Like-named read-outs stand apart in the source and are kept apart here.
# Columns and labels:
# CK1δ [1] = biological target: T1, CK1δ (Homo sapiens, UniProt P48730); experiment: In vitro kinase assay (ATP consumption, Kinase Glo), 'dark' and UV-irradiated 'light' samples; format: biochemical; conditions: for degree of CK1δ inhibition reached in dose-response curve: 'light' and/or 'dark' samples; for difference in activity (potency) between 'light' and 'dark' states: irradiated (365 nm) vs thermally adapted sample, 'light' more potent
# Description: After evaluating the photochemical properties of the three photoswitches DK398, DK518, and DK557 in detail, an in vitro kinase activity assay was performed. In this assay, the inhibitory activity towards CK1δ of both dark (all-trans) and irradiated (cis-enriched) samples was evaluated to construct dose–response curves for both states. During the enzymatic reaction (2 h), samples were either kept in the dark or irradiated with UV light (λmax = 365 nm). UV light irradiation itself was confirmed to have no effect on CK1δ activity (Figure S9). After the enzymatic reaction, ATP consumption was measured to determine enzyme activity. The ATP consumption of the samples containing the photoswitchable inhibitors was compared to the ATP consumption of a DMSO control to assess the degree of enzyme inhibition.
# In vitro kinase assay. Stock solutions (2.0 mM) of the photoswitchable LH846 inhibitors were prepared in DMSO and thermally adapted by heating to c.a. 100 °C for 1 min. Dilutions were made in DMSO to reach 21-fold concentrated solutions of the desired concentrations to be tested in the assay. The assays were performed on white, solid-bottom 384-well plates and electronic, hand-held Gilson pipettes were used. The total volume for the reaction was 10.5 µL. All solutions were applied to the well plate in a dark room to prevent ambient-light-induced photo-isomerisation. Firstly, a solution of CK1δ and substrate peptide RKKKAEpSVASLTSQCSYSS (Anaspec Fermont, CA, USA, custom made) in a kinase assay buffer was aliquoted into the bottom of the wells (9 µL). Next, the 21-fold concentrated solutions of the compound (0.5 μL, final 4.8% DMSO) was pipetted into the bottom of the wells. Lastly, a solution of ATP in water (50 µM, 1 μL) was pipetted into the upper corners of each well (final concentration 4.8 µM). Final concentrations of CK1δ and the substrate peptide were 2 ng/µL and 50 µM, respectively. The enzymatic reaction was started by spinning down the plate (1800× g, 2 min). By employing this method, all reactions were started at the same time, minimising variance between different samples. During the assay, ‘light’ samples were irradiated with UV light (λ = 365 nm, UV lamp Spectroline, ENB-280/FE, 1 × 8 Watt) for the full duration of the assay (2 h). The wells of ‘dark’ samples were carefully covered with an aluminium sticker. After the incubation period (2 h at 30 °C), 10 μL Kinase Glo® (Promega, Madison, WI, USA) was applied into the wells and the luminescent signal was recorded by a plate reader (BioTek Synergy H1). All measurements were carried out in triplicate. Enzyme activity was determined by comparing the ATP consumption of the samples containing the LH846-analogues to that of a DMSO control, set as 100% enzyme activity.
# [2] = Reversible switching cycles in kinase assay buffer containing DTT ((photo)chemical stability); format: physicochemical; conditions: kinase assay buffer with 0.5 mM DTT, 365 nm / 445 nm irradiation
# Description: (§1) Lastly, the chemical stability of the photoswitches was evaluated in the kinase assay buffer. To avoid the oxidation of the kinase substrate peptide, the buffer contains dithiothreitol (DTT) as a reducing agent. Therefore, we presumed that performing multiple switching cycles in this buffer would allow us to gain insight into both the photochemical- and chemical stability of the three photoswitches. […] We hypothesise that the instability of DK398 in the assay buffer was caused due to either poor solubility or interactions with buffer components, such as the BSA protein.
# Photochemical evaluation. UV-Vis absorption spectra were recorded on an Agilent 8453 UV-Visible spectrophotometer equipped with an irradiation set-up containing a 365 and 445 nm LED. Stock solutions of DK398, DK518, and DK557 were prepared in DMSO (2.0 mM) and were diluted 100-fold in kinase assay buffer (40 mM Tris-HCl, 10 mM MgCl2, 0.5 mM DTT, 0.1 mg/mL BSA, pH 7.4, final 1% DMSO) or DMSO for spectroscopic characterisation. Reversible switching cycles were performed in a kinase assay buffer to evaluate the (photo)chemical stability. All three compounds were irradiated using UV light (λmax = 365 nm) to perform trans-to-cis isomerisation and blue light (λmax = 445 nm) for the back-reaction. The irradiation time was adjusted to the compound until the corresponding PSS was achieved.
# Figure 2 (a) Structures and irradiation-dependent interconversion of the trans and cis isomers of DK398, DK518, and DK557; (b) UV-Vis absorption spectra of DK398, DK518, and DK557 in kinase assay buffer (10–20 µM, 4.8% DMSO) in the thermally adapted (all trans) and irradiated forms; (c) isomer distribution in the photostationary state (pie charts). The pink region represents the percentage of cis-isomer in the PSD as determined by ^1H-NMR (DMSO-d6). […]
# [3] = Reductive stability (DTT), UPLC-MS after incubation in buffer; format: physicochemical; conditions: 10 µM, 0.5 mM DTT, 10 mM MgCl2, pH 7.4, 2 h at 30 °C
# Description: as §1
# Reductive stability (DTT)
# Figure S8. UV-traces (λ = 312 nm) of UPLC-MS measurements after incubation of DK518, DK398 and
# DK557 in buffer (10 µM, 0.5 mM DTT, 10 mM MgCl2, pH 7.4) for 2h at 30 °C. Traces show the presence of […]
# CK1δ [4] = biological target: T1, CK1δ; set-up: method as in PMID 21954091; conditions: parent inhibitor; read-out: IC50 of LH846 towards CK1δ; cited from earlier work
# [5] = 'dark' (all-trans, thermally adapted) samples, 2 h at 30 °C, 4.8 µM ATP, read-out: 50 % inhibition: dark (absolute IC50)
# [6] = 'light' (cis-enriched) samples irradiated with UV light 365 nm for the full 2 h, 30 °C, 4.8 µM ATP, read-out: 50 % inhibition: light (absolute IC50)
# T1 sequence (P48730 whole entry): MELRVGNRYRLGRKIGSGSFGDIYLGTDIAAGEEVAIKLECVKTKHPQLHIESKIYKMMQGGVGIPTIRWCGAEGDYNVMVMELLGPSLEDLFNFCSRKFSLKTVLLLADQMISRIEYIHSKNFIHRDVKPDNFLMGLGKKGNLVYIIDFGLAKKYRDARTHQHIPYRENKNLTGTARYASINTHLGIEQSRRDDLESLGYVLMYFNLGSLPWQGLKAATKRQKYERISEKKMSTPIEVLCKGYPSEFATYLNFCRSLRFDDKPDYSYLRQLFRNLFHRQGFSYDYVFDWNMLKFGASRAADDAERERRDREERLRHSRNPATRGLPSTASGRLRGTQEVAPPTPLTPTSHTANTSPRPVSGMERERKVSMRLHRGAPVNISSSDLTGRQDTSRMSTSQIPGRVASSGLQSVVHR
pIC50 (CK1δ [1]; [5]),pIC50 (CK1δ [1]; [6]),degree of CK1δ inhibition reached in dose-response curve (CK1δ [1]),"pIC50 (CK1δ [1]; both 'light' and 'dark' samples, read-out: IC50 values towards CK1δ)",difference in activity (potency) between 'light' and 'dark' states (CK1δ [1]),stability over multiple switching cycles [2],SMILES,stability against reduction by DTT [3],pIC50 (CK1δ [4])
–,–,–,–,–,–,Cc1cc2sc(NC(=O)Cc3ccccc3)nc2cc1Cl [LH846],–,6.54
< 5.00,~6.00,incomplete inhibition,–,~10 fold,poor stability,Cc1cc2sc(NC(=O)Cc3ccc(/N=N/c4ccccc4)cc3)nc2cc1Cl [DK398],No reduction products (hydrazine or aniline) were observed,–

SMILES,pIC50 (CK1δ [1]; [5]),pIC50 (CK1δ [1]; [6]),degree of CK1δ inhibition reached in dose-response curve (CK1δ [1]),"pIC50 (CK1δ [1]; both 'light' and 'dark' samples, read-out: IC50 values towards CK1δ)",difference in activity (potency) between 'light' and 'dark' states (CK1δ [1]),stability over multiple switching cycles [2],stability against reduction by DTT [3],pIC50 (CK1δ [4])
Cc1cc2sc(NC(=O)Cc3cccc(/N=N/c4ccccc4)c3)nc2cc1Cl [DK518],6.47,6.46,achieved complete enzyme inhibition,~6.46,completely abolished the difference in activity,excellent stability,No reduction products (hydrazine or aniline) were observed,–
Cc1cc2sc(NC(=O)Cn3nc(C)c(/N=N/c4ccccc4)c3C)nc2cc1Cl [DK557],4.94,5.92,complete enzyme inhibition upon irradiation,–,~10 fold,excellent stability,No reduction products (hydrazine or aniline) were observed,–
